Here are results for 25 compounds from patent publication US5929236A, “2-substituted morpholine and thiomorpholine derivatives as GABA-B antagonists” (Schering Corporation, priority 1995, dated 1999).

Molecules are shown by their SMILES.

The target in data set [1] is T1, GABAB receptors (Rattus norvegicus, UniProt Q9Z0U4).
T1 construct: Rat brain synaptosomes are used as a source of GABAB receptors; from tissue; host or cells: rat brain synaptosomes
The data set is described as follows: GABAB Receptor Binding Assay ([3H]GABA, rat brain synaptosomes). Here is the method: GABAB Receptor Binding Assay
The percentage inhibition of GABA binding to GABAB receptors is measured by tritiated GABA ([^3 H]GABA) determination of the degree of binding by scintillation counting. Rat brain synaptosomes are used as a source of GABAB receptors. An incubation medium is prepared from the following: 20 μg/mL of the compound to be tested as a solution in 1% DMSO/water; 5 nM [^3 H]GABA; 50 mM Tris buffer (pH 7.5); and 2.5 mM CaCl2. The medium also contains 40 μM isoguvacine to selectively block binding to GABAA receptors. The synaptosome (200 μg/mL) is added to the incubation medium and incubated for 30 minutes at 20° C. The incubation is terminated by filtration and counted to determine the percentage inhibition of [^3 H]-GABA binding. The results are reported as IC50 values for those compounds inhibiting [^3 H]-GABA binding by >50%.

For data set [2], the target named is prejunctional GABAB receptors (Cavia porcellus, UniProt A0A286X9P6). Kind of data set: In Vitro Assay (guinea pig trachea, reversal of baclofen inhibition of EFS-induced contractions). The format is cell-based, guinea pig (male Hartley). The following applies: 30 μmol/L baclofen; for IC30: guinea pig trachea. Here is the method: Male Hartley guinea pigs (450-650 g) are sacrificed by stunning and the trachea removed proximal to the carina and cut into 5 mm segments. The segments are attached to isometric force displacement transducers (Model FT03: Grass Instruments) and suspended in 15 mL organ baths filled with low Ca^2+ (0.6 mmol/L) Tyrode's buffer solution (pH 7.4) supplemented with 5.6 mmol/L glucose, 30 μmol/L choline and 2 μmol/L indomethacin. The solution is bubbled with a mixture of 95% O2 +5% CO2 and maintained at 37° C. The tracheal segments are allowed to equilibrate for 90 minutes under a resting tension of 0.5 g.
Platinum electrodes are placed on either side of the trachea and electrical field stimulation (EFS) (20 V, 8 Hz, 0.5 ms pulse for 5 s) was generated each minute from an electrical stimulator (Model S-88: Grass Instruments) and delivered to the electrodes through a stimulus distributor (Buxco Electronics). The stimulation parameters are chosen as appropriate for producing cholinergic contractions of the trachea that are sensitive to the inhibitory effects of compounds acting at prejunctional GABAB receptors. Contractile responses were recorded on a polygraph (Harvard Apparatus). The compound to be tested is added to the bath 10 min. before addition of 30 μmol/L baclofen. The effect of baclofen treatment in the absence or in the presence of the compound to be tested is expressed as a percent inhibition of EFS-induced contractions.

Data set [3] relates to GABAB. The following applies: literature, in words; cited from earlier work.
For data set [4] the following is noted: literature (Olpe, et al), in words; cited from earlier work.
In data set [5] the test system is Respiratory Depressant Effect of Baclofen. Kind of data set: Inhibition of Respiratory Depressant Effect of Baclofen. The format is in vivo, guinea pig. The following applies: baclofen alone (3 mg/kg, sc). The protocol:
(§1) Animal Model for Respiratory Depression:
Place unanesthetized guinea pigs in a head-out plethysmograph and expose to a CO2 enriched gas mixture (10% CO2, 21% O2, 69% N2) for 10 min., (see Danko, et al., J. Pharm. Methods, 19, 165-173 (1988)). Plethysmograph pressure is detected with a transducer connected to a chart recorder. Minute ventilation is calculated as the product of tidal volume and respiratory frequency. The compound to be tested is administered orally, subcutaneously (sc), intraperitoneally (ip) or via an intracerebroventricular route (icv). Baclofen (3 mg/kg, sc) was given 30 min before exposure to the CO2 enriched gas. […] A 40 or 30 min. preteratment is used for the subcutaneous and intraperitoneal routes, respectively. The vehicle for oral, sc or ip administration is saline. For icv administration, single icv cannulae are placed in the lateral ventricle of anesthetized guinea pigs, (see McLeod, et al., Eur. J. Pharmacol., 209, 141-142 (1988)). The animals are allowed to recover approximately one week prior to use for ventilation experiments. The vehicle for icv administration is artificial cerebrospinal fluid (CSF).

For data set [6] the test system is unchanged. The data set is described as follows: Reversal of the Respiratory Depressant Effect of Baclofen via icv Administration. It counts as in vivo, guinea pig. The following applies: baclofen plus vehicle. The protocol:
as §1
Place unanesthetized guinea pigs in a head-out plethysmograph and expose to a CO2 enriched gas mixture (10% CO2, 21% O2, 69% N2) for 10 min., (see Danko, et al., J. Pharm. Methods, 19, 165-173 (1988)). Plethysmograph pressure is detected with a transducer connected to a chart recorder. Minute ventilation is calculated as the product of tidal volume and respiratory frequency. The compound to be tested is administered orally, subcutaneously (sc), intraperitoneally (ip) or via an intracerebroventricular route (icv). Baclofen (3 mg/kg, sc) was given 30 min before exposure to the CO2 enriched gas. When given by the oral route, the compounds is administered 1, 3, 5 or 7 h before exposure to CO2 enriched gas. A 40 or 30 min. preteratment is used for the subcutaneous and intraperitoneal routes, respectively. The vehicle for oral, sc or ip administration is saline. For icv administration, single icv cannulae are placed in the lateral ventricle of anesthetized guinea pigs, (see McLeod, et al., Eur. J. Pharmacol., 209, 141-142 (1988)). The animals are allowed to recover approximately one week prior to use for ventilation experiments. The vehicle for icv administration is artificial cerebrospinal fluid (CSF).

[7] abbreviates: 5 nM [3H]GABA, rat brain synaptosomes, 20° C., 30 min.

T1 sequence (Q9Z0U4 17-960 limits assumed): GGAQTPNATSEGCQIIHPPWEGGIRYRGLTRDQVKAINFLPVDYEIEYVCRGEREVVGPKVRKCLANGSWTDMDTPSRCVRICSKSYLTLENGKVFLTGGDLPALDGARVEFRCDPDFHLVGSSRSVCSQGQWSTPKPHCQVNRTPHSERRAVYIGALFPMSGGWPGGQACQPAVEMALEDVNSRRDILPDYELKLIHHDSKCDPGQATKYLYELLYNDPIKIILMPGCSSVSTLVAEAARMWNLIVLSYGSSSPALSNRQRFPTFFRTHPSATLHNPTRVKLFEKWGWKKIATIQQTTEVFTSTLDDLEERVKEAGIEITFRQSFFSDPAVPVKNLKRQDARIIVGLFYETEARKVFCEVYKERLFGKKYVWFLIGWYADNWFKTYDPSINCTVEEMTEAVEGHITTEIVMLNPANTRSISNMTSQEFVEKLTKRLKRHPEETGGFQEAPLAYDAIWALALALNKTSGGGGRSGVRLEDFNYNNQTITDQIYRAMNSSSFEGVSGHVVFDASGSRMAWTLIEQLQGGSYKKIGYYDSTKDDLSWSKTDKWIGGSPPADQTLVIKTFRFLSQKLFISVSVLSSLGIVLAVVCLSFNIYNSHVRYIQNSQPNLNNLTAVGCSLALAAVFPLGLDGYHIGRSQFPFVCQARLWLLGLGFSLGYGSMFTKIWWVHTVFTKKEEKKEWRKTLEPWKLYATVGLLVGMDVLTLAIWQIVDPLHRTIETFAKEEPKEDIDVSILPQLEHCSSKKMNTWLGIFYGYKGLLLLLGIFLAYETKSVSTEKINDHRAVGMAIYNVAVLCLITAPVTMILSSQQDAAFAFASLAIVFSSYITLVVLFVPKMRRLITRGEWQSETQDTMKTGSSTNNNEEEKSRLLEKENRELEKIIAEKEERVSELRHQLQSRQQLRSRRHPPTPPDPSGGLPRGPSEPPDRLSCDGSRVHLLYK
T1 sequence (O88871 41-940 partner): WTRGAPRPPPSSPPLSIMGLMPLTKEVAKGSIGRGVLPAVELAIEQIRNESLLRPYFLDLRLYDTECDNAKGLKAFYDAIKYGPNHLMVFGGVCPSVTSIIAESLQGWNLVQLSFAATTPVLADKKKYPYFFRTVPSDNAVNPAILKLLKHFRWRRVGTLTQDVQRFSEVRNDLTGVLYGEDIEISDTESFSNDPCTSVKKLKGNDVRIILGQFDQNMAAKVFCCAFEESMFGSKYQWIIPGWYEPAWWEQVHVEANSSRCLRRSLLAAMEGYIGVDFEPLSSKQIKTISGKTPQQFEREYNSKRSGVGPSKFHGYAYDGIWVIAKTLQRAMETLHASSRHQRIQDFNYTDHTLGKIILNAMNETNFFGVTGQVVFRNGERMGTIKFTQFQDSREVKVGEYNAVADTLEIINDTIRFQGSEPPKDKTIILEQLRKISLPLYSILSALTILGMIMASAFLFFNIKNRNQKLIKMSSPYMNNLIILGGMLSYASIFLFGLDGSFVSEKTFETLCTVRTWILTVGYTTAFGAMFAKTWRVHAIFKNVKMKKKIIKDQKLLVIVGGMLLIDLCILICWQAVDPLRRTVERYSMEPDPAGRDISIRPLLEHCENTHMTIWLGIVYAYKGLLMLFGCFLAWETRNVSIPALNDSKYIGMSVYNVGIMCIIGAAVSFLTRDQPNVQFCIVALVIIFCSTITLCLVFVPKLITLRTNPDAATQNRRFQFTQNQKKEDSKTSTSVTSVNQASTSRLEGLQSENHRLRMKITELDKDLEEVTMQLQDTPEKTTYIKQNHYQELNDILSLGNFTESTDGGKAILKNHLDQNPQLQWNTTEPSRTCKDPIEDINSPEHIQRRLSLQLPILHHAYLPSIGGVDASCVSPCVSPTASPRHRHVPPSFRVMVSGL
Chain of prejunctional GABAB receptors (A0A286X9P6 30-844): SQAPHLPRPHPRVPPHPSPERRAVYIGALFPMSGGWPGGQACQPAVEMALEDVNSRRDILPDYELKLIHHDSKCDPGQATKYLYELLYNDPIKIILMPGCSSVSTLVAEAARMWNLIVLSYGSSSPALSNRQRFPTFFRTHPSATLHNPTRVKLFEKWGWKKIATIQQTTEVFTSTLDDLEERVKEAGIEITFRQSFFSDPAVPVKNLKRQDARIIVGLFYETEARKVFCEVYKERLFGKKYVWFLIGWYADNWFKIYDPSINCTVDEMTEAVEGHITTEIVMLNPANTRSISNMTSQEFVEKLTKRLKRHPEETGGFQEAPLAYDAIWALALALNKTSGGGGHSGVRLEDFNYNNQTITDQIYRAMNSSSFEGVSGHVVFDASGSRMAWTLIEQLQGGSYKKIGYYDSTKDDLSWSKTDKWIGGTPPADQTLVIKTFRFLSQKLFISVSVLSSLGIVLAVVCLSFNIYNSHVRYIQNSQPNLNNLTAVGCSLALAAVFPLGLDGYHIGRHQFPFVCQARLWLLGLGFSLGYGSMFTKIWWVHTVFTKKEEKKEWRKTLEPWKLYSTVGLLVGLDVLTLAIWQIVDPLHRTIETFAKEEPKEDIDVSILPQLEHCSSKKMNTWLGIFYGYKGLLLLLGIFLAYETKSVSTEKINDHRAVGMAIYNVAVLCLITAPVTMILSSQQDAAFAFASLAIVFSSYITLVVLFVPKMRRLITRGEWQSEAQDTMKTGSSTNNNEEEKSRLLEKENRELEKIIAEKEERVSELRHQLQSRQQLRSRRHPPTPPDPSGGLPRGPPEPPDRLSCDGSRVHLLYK
Chain of prejunctional GABAB receptors (H0V741 1-820 partner): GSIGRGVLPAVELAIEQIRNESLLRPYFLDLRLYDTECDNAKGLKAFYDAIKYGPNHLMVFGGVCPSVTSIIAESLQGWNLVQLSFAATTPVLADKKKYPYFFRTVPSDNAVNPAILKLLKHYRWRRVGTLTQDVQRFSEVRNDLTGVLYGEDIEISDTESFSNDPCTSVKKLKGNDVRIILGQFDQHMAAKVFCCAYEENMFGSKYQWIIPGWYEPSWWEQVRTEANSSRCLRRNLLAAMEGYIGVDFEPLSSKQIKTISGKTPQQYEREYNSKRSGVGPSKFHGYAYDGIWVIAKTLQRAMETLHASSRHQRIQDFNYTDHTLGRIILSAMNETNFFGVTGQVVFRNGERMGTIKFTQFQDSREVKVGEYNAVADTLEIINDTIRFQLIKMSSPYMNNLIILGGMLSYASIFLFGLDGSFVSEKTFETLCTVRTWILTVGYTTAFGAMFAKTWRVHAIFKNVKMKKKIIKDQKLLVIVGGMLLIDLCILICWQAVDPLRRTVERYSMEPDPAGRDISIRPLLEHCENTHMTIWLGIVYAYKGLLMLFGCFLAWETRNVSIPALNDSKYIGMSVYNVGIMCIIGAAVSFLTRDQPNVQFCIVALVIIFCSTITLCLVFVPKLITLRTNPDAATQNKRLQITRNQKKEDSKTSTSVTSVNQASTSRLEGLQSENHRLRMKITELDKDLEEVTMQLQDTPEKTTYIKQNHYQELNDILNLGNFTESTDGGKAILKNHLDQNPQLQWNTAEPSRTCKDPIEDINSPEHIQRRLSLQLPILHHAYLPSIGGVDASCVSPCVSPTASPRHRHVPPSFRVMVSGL

`CC[C@@]1(CO)CO[C@@H](CC(=O)O)CN1` (relative stereo) [Example 19] showed an IC50 in data set [1] (setting [7]) of 19 ± 10 µM. For the same compound, in data set [2] (100 μM), the inhibition at 100 µM was 90%. Moreover, the inhibition at 300 µM in data set [2] is 99%.

Turning to `C[C@@H]1CO[C@@H](CC(=O)O)CN1` (relative stereo) [Example 14A], in data set [1] (setting [7]), the IC50 amounted to 30 µM. Further, the inhibition at 100 µM in data set [2] (100 μM) was found to be 63%. Also, in data set [2], the inhibition at 300 µM came out at 75%.

Consider `O=C(O)CC1CNC2(CC2)CO1` (stereo not drawn) [Example 9A], for which the half-inhibitory concentration (IC50) in data set [1] (setting [7]) stood at 37 ± 12 µM. Moreover, the inhibition at 100 µM in data set [2] (100 μM) stood at 76%.

In data set [1] (setting [7]), `CC1(C)COC(CC(=O)O)CN1` (stereo not drawn) [Example 2] had a half-maximal inhibitory concentration (IC50) of 6 µM. In addition, in data set [2], the IC30 was found to be 1.5 µM and the inhibition at 300 µM amounted to 100%. In data set [2] (100 μM), the inhibition at 100 µM worked out at 96%.

The compound `O=C(O)CC1CNCCS1` (stereo not drawn) [Example 16] showed an IC50 in data set [1] (unit inferred) of more than 100 µM. Also, in data set [2] (100 μM), the inhibition at 100 µM was 44%.

`NCC(O)(CS(=O)(=O)O)c1ccc(Cl)cc1` (stereo not drawn) [2-hydroxy saclofen]: the GABAB receptor affinity entry in data set [3] is “low affinity”.

In turn, `CC[C@]1(CO)CO[C@@H](CC(=O)O)CN1` (relative stereo) [Example 18] came in with a half-maximal inhibitory concentration (IC50) in data set [1] (setting [7]) of 100 ± 40 µM. In addition, the inhibition at 100 µM in data set [2] (100 μM) amounted to 50%.

Take `CC1(C)COC(CC(=O)O)CN1` (single isomer, unassigned) [Example 6B]: in data set [1] (setting [7]), the 50% inhibitory concentration (IC50) is more than 100 µM. Also, in data set [2] (100 μM), the “In Vitro % inhibition” value worked out at 8%. For the same compound, in data set [2], the inhibition at 300 µM came to 42%.

Consider `CP(=O)(O)CC1CNC2(CCCC2)CO1` (stereo not drawn), for which the half-inhibitory concentration (IC50) in data set [1] (setting [7]) came out at 3 µM. Moreover, in data set [2], the concentration for an effect of 30% (IC30) was determined as 3.3 µM.

In the case of `CC1CNCC(CC(=O)O)S1` (stereo not drawn), the IC50 in data set [1] (setting [7]) is more than 100 µM. Also, the inhibition at 100 µM in data set [2] (100 μM) was 21%.

Regarding `O=C(O)CC1CNCCO1` (stereo not drawn), the half-maximal inhibitory concentration (IC50) in data set [1] (setting [7]) turned out to be 50 µM. Further, the inhibition at 100 µM in data set [2] (100 μM) turned out to be 59%. Also, the inhibition at 300 µM in data set [2] came out at 46%.

In data set [1] (setting [7]), `C[C@H]1CS[C@@H](CC(=O)O)CN1` (relative stereo) [Example 13B] registered a half-maximal inhibitory concentration (IC50) of 60 µM. The inhibition at 100 µM in data set [2] (100 μM) amounted to 55%.

With `CC[C@H]1CO[C@H](CC(=O)O)CN1`, in data set [1] (setting [7]), the half-inhibitory concentration (IC50) is more than 100 µM. Besides, the inhibition at 100 µM in data set [2] (100 μM) was 17%.

`CP(=O)(O)CC1CNCCO1` (stereo not drawn) [Example 24]: in data set [1] (setting [7]), the IC50 amounted to 6 µM. Moreover, the inhibition at 100 µM in data set [2] (100 μM) amounted to 100%. The inhibition at 300 µM in data set [2] was 98%.

`CCOC(OCC)P(=O)(O)CCCN` [CGP 35348, 3-aminopropyl(diethoxymethyl)phosphinic acid]: the GABAB receptor affinity result in data set [3] is “low receptor affinity (comparable to 2-hydroxy saclofen)”. Moreover, the “Penetration of the blood/brain barrier” value in data set [4] is given as “can penetrate the blood/brain barrier”.

With `NCC(CC(=O)O)c1ccc(Cl)cc1` (stereo not drawn) [Baclofen, reference compound], the Inhibition of ventilation in data set [5] is on record as 44-60%; in data set [6] it was 82 ± 5%.

Take `CC1(C)COC(CP(C)(=O)O)CN1` (stereo not drawn): the IC50 in data set [1] (setting [7]) worked out at 2 µM. Moreover, the concentration for an effect of 30% (IC30) in data set [2] was determined as 1.9 µM. Moreover, the inhibition at 100 µM in data set [2] (100 μM) amounted to 100%.

Turning to `CC[C@@H]1CO[C@@H](CC(=O)O)CN1` [Example 11], in data set [1] (setting [7]), the 50% inhibitory concentration (IC50) amounted to 14 µM. Besides, the inhibition at 100 µM in data set [2] (100 μM) came to 82%. Besides, in data set [2], the inhibition at 300 µM was determined as 95%.

In data set [1] (setting [7]), `C[C@]1(CO)CO[C@@H](CC(=O)O)CN1` (relative stereo) [Example 20] yielded an IC50 of 3.8 µM. Moreover, the inhibition at 30 µM in data set [2] (30 μM) stood at 24%.

In the case of `CC[C@@H]1CO[C@H](CC(=O)O)CN1`, the half-inhibitory concentration (IC50) in data set [1] (setting [7]) came out at 100 µM. In addition, the inhibition at 100 µM in data set [2] (100 μM) turned out to be 50%.

For the compound `C[C@@]1(CO)CO[C@@H](CC(=O)O)CN1` (relative stereo) [Example 21], the IC30 in data set [2] was 0.85 µM.

`C[C@H]1CO[C@@H](CC(=O)O)CN1` (relative stereo) [Example 14] displayed a half-maximal inhibitory concentration (IC50) in data set [1] (setting [7]) of 20 µM. Also, the inhibition at 100 µM in data set [2] (100 μM) was 74%. Further, the inhibition at 300 µM in data set [2] was 95%.

`C[C@@H]1CS[C@@H](CC(=O)O)CN1` (relative stereo) [Example 13C] gave an IC50 in data set [1] (setting [7]) of 20 µM. For the same compound, the inhibition at 100 µM in data set [2] (100 μM) is 81%. Besides, the inhibition at 300 µM in data set [2] stood at 88%.

In turn, `CP(=O)(O)CC1CN(Cc2ccccc2)CCO1` (stereo not drawn) [Example 23] showed an IC50 in data set [1] (setting [7]) of more than 100 µM. Moreover, in data set [2] (100 μM), the inhibition at 100 µM worked out at 31%.

The compound `O=C(O)CC1CNC2(CCCC2)CO1` (stereo not drawn) [Example 9] gave a half-maximal inhibitory concentration (IC50) in data set [1] (setting [7]) of 10 µM. Further, the inhibition at 100 µM in data set [2] (100 μM) stood at 95%. For the same compound, the inhibition at 300 µM in data set [2] is 97%.

Usually IC50 stands for the concentration needed to halve the response being measured. A higher IC50 goes with a need for much substance. A word on the inhibition: it is the percentage by which the read-out fell short of the control. Usually IC30 stands for the concentration needed for an effect of 30%.
